Results reported in patent publication US20050203067A1, “Pesticidal compositions and methods” (priority 2003, published 2005).
pEC50: −log10 of the molar value. In brackets after ≈: the same amount, converted by molar mass. Several values for one entry are separate records, joined by “and”; a condition that tells them apart may be missing. Identical values can stand only once. Like-named read-outs stand apart in the source and are kept apart here.

Tests used:
[1] = system: C. elegans; assay: C. elegans agar (plate) assay; type: in vivo; settings: Caenorhabditis elegans, read-out: Plate EC50
[2] = system: Beet army worm
[3] = system: C. elegans; assay: C. elegans liquid (well) assay; type: in vivo; settings: Caenorhabditis elegans, read-out: Well EC50
[4] = system: Fusarium graminearum; assay: microbe, parasite or virus in culture; type: cell-based; settings: read-out: growth inhibition
[5] = system: root knot nematode (Meloidogyne incognita); settings: in vivo
[6] = system: C. elegans (strain N2); assay: C. elegans contact assay (NGM-agar, 24-well); type: in vivo; settings: Caenorhabditis elegans, 96 h
[7] = system: Sclerotinia sclerotiorum; assay: microbe, parasite or virus in culture; type: cell-based; settings: read-out: growth inhibition
[8] = system: tomato plants; settings: in vivo
[9] = system: Meloidogyne incognita J2 larvae; assay: Miniaturized greenhouse assay on cucumber seedlings, root gall rating; type: in vivo
[10] = system: several arthropods; settings: in vivo
[11] = system: Corn ear worm
[12] = system: Alternaria solani; assay: microbe, parasite or virus in culture; type: cell-based; settings: read-out: growth inhibition
[13] = system: various fungal species
[14] = system: Botrytis cinerea; assay: microbe, parasite or virus in culture; type: cell-based; settings: read-out: growth inhibition
[15] = system: cucumber seedling; assay: Miniaturized greenhouse assay, phytotoxicity rating; settings: 200 ppm

O=S(=O)(F)CCNc1ccc(N=Nc2ccccc2)cc1 [Compound 3746, 2-(4-phenylazo-phenylamino)-ethanesulfonyl fluoride]
EC50 [1]: 1.6 µg/mL (≈ 5.21 µM) | Result (arthropod toxicity) ([2]; 2500 μM): No effect | Result (arthropod toxicity) ([2]; 25000 μM): Lethal | EC50 [3]: 6.3 to 12.5 µg/mL (≈ 20.5 to 40.7 µM) | inhibition at 1.63 µM ([4]; 1.63 μM): < 25% | inhibition at 16.3 µM ([4]; 16.3 μM): > 75% | nematode control (gall ratings) [5]: nematode control approaching that of the commercial nematicides fenamiphos (Nemacur) | pEC50 [6]: 5.70 | inhibition at 16.3 µM ([7]; 16.3 μM): < 25% | inhibition at 163 µM ([7]; 163 μM): > 75% | phytotoxicity (root weights) [8]: no phytoxicity | Gall 40 (gall rating) ([9]; 40 ppm): 1.33 and 2.00 | Gall 200 (gall rating) ([9]; 200 ppm): 0.00 | toxicity to arthropods [10]: not toxic | Result (arthropod toxicity) ([11]; 2500 μM): Non-effect | Result (arthropod toxicity) ([11]; 25000 μM): Lethal | inhibition at 1.63 µM ([12]; 1.63 μM): < 25% | inhibition at 16.3 µM ([12]; 16.3 μM): > 75% | toxicity to fungal species [13]: Low to moderate toxicity | inhibition at 1.63 µM ([14]; 1.63 μM): < 25% | inhibition at 16.3 µM ([14]; 16.3 μM): > 75% | Ptox 200 (phytotoxicity rating) [15]: 3.00 and 2.67
